Paper PMC6337588, “Multi-Target Cinnamic Acids for Oxidative Stress and Inflammation: Design, Synthesis, Biological Evaluation and Modeling Studies” (Molecules, 2018)
Where “and” joins values, the source holds several entries; their conditions need not be identical. Equal values may be shown once.

What was measured:
[1] = Experimental lipophilicity as RM values by reversed phase TLC (RPTLC); assay type: physicochemical; settings: methanol/water 77/23 with 0.1% acetic acid, 24 °C, average of at least 5 measurements
From the text: Lipophilicity is a physicochemical property correlated with the biological activity. Lipophilicity influences ligand-target binding interactions, solubility, absorption, distribution, bioavailability, metabolism and elimination (ADME) and toxicological outcomes. The lipophilicity of the novel cinnamic acids was experimentally measured as RM values using a reverse phase thin layer chromatography (RPTLC) method. This is acknowledged as a reliable, fast and convenient approach for expressing lipophilicity (Table 1). RM relates to the thermodynamic Rf value in a logarithmic form. Bate-Smith and Westall firstly determined lipophilicity as RM values in 1950 [31]. The Br-substituted derivatives 1i–7i are more lipophilic than the OH-substituted ones 1ii–7ii which can be easily explained by their structural characteristics.
Reversed phase TLC (RPTLC) was performed on silica gel plates impregnated with 55% (v/v) liquid paraffin in light petroleum ether. The mobile phase was a methanol/water mixture (77/23, v/v) containing 0.1% of acetic acid. The plates were developed in closed chromatography tanks saturated with the mobile phase at 24 °C. Spots were detected under UV light. RM values were determined from the corresponding Rf values (from five individual measurements) using the equation RM = log[(1/Rf) − 1] [17, 18, 28].

soybean lipoxygenase = target: T1, soybean lipoxygenase (Glycine max, UniProt P08170); experiment: Soybean lipoxygenase inhibition in vitro; assay type: biochemical; settings: sodium linoleate 0.1 mM, 234 nm, read-out: LOX IC50
T1 construct: purchased Sigma Chemical, Co. (St. Louis)
T1 sequence (P08170 1-839): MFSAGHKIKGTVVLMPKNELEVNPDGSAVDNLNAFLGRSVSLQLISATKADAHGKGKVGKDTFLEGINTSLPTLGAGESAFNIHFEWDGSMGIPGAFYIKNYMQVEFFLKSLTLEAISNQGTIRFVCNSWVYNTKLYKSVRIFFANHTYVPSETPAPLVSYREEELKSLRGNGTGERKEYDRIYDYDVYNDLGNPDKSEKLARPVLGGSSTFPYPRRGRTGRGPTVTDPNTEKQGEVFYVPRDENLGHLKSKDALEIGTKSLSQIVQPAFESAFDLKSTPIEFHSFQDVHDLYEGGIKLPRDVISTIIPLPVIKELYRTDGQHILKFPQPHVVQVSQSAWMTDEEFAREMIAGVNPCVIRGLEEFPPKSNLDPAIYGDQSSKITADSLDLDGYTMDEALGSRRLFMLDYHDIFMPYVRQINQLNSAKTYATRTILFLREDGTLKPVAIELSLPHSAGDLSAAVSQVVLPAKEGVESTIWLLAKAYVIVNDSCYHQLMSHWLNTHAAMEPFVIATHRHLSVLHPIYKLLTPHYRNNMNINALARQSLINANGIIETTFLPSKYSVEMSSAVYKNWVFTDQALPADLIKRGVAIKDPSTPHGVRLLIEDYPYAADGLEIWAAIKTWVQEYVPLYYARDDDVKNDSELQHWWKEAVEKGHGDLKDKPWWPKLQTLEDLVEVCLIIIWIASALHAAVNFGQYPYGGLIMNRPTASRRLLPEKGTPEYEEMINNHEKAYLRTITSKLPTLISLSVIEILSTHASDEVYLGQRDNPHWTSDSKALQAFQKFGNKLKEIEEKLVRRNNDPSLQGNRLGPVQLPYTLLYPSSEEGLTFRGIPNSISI
Experimental: Many research groups have used readily obtainable soybean lipoxygenase, which is a homologue of mammalian lipoxygenase and well studied. Due to its availability and its well-characterised crystal structure, soybean LOX was selected to be used in this study.
In vitro study was evaluated as reported previously by our group. The tested compounds were incubated at room temperature with sodium linoleate (0.1 mM) and 0.2 mL of enzyme solution (1/9 × 104 w/v in saline). The method was based to the conversion of sodium linoleate to 13-hydroperoxylinoleic acid at 234 nm. […] In order to determine the IC50 values different concentrations were used.

[2] = Reducing activity of the stable radical DPPH; assay type: biochemical
Experimental: The substituted acids were monitored for the antioxidant activity by the use of the stable 2,2-diphenyl-1-picrylhydrazyl radical (DPPH) at concentration 50 µM and 100 µM after 20 and 60 min (Table 1). In this assay the DPPH radical is reduced by single electron transfer from the antioxidant. Strong antioxidants are the phenoxide anions from phenolic compounds like catechol and derivatives, such as nordihydroguaretic acid (NDGA), the reference compound. The compounds presented medium reducing abilities from 29–61%, due to steric reasons; small differences were found among the compounds with time and concentration. 4-Br-substituted-3 phenyl acetic acid derivatives (Series I) are equipotent to 4-OH-substituted-3 phenyl acetic acid derivatives (Series II). No differences were observed between 4i and 5i and 4ii and 5ii.
To a solution of DPPH in absolute ethanol an equal volume of the compounds dissolved in DMSO was added. The final concentrations of the measured solutions of the novel acids were 50 and 100 µM starting from a stock solution (10 mM) in DMSO. The absorbance was recorded at 517 nm, after 20 and 60 min at room temperature (Table 1).

[3] = Competition with DMSO for hydroxyl radicals (Fe3+/ascorbic acid system); assay type: biochemical; settings: hydroxyl radical scavenging
Experimental: Competition of the novel substituted acids with DMSO for hydroxyl radicals was measured. Hydroxyl radicals were generated using the Fe^3+/ascorbic acid system and expressed as a percentage inhibition of formaldehyde production in the presence of each compound at 100 μM (Table 2). All the synthesized derivatives strongly scavenge hydroxyl radicals at 100 μM in comparison to the reference compound Trolox.
The hydroxyl radicals generated by the Fe^3+/ascorbic acid system, were detected by the determination of formaldehyde produced from the oxidation of DMSO (Table 2). Trolox was used as reference compound [17, 18, 28].

[4] = Non enzymatic assay of superoxide radical scavenging activity (PMS/NADH/NBT); assay type: biochemical
Experimental: Superoxide radical is a main cause of oxidative stress, expressing its biological toxicity by the inactivation of iron-sulfur cluster containing enzymes. The superoxide anion radical (O2^−^•) is less toxic than the hydroxyl radical, but still being one of the most known toxic reactive oxygen species (ROS). In this assay the superoxide anion radicals were generated by a non-enzymatically assay and the compounds are tested at 100 μM final concentration (Table 2). Caffeic acid (CA) has been used as a reference compound. Compound 4ii presented the highest activity, followed by compound 3ii. We succeeded to derive a quantitative-structure activity relationship model for this activity in which the topological polar surface (TPAS) of the compounds seem to govern the superoxide anion scavenging activity:% Superoxide Anion Scavenging Activity (100 µM) = 0.019 (±0.007) TPSA + 0.813 (±0.358) n = 6, r = 0.962, r^2 = 0.926, q^2 = 0.694, s = 0.122, Q = 7.885, F1,6 = 3.701, α = 0.1 clog P vs. TPSA 0.
The superoxide radicals are generated by mixing N-methylphenazonium methyl sulfate (PMS), NADH and air–oxygen and determined by the nitroblue tetrazolium method and measured at 560 nm (Table 2). Caffeic acid was used as reference compound [17, 18, 28].

[5] = ABTS+• decolorization assay; assay type: biochemical; settings: 1 min, 734 nm
Experimental: No role for lipophilicity was found. Oxidation of ABTS with potassium persulfate generates directly the ABTS radical cation (ABTS^+•) with no involvement of an intermediary radical, which is then reduced upon adding electron-donating antioxidants.
In order to produce the ABTS radical cation (ABTS^+•), ABTS stock solution in water (7 mM) was mixed with potassium persulfate (2.45 mM) and left in the dark at room temperature for 12–16 h before use. Our published experimental technique was used (Table 2). The results are recorded after 1 min of the mixing solutions at 734 nm. The results were compared to the appropriate standard inhibitor Trolox.

[6] = Inhibition of linoleic acid peroxidation (AAPH); assay type: biochemical; settings: anti-lipid peroxidation
From the text: We also used water-soluble 2,2′-[…](2-amidinopropane) hydrochloride (AAPH) for the generation of free radicals. AAPH has been extensively used as a clean and controllable source of thermally produced alkylperoxyl free radicals. The peroxyl radicals produced by the action of AAPH show total similarity to cellular activities such as lipid peroxidation. […] It seems that the presence of 3,5-di-tert-butyl-group greatly enhances protection against lipid peroxidation (6i/ii and 7i/ii followed by 3ii and 5ii). The lipid peroxidation inhibitory activity seems to be concentration dependent.
2,2’-Azobis(2-amidinopropane) dihydrochloride (AAPH) was used as a free radical initiator to start the oxidation reaction. The method was based on the production of conjugated diene hydroperoxide by oxidation of linoleic acid at 234 nm expressed as an increased absorption. Trolox was used as reference compound (93%) (Table 2).

| Compound | RM (±SD) [1] | IC50 (soybean lipoxygenase) | RA% 50 µM 20 min [2] | RA% 50 µM 60 min [2] | RA% 100 µM 20 min [2] | RA% 100 µM 60 min [2] | HO•% 100 µM [3] | O2−•% 100 µM [4] | ABTS+•% 100 µM [5] | AAPH% 50 µM [6] | AAPH% 100 µM [6] | melting point | AAPH lipid peroxidation inhibition at 10 μΜ ([6]; 10 μΜ) |
| --- | --- | --- | --- | --- | --- | --- | --- | --- | --- | --- | --- | --- | --- |
| CN(C)c1ccc(C=CC=C(C(=O)O)c2ccc(O)cc2)cc1 [Compound 3ii, 5-(4-(Dimethylamino)phenyl)-2-(4-hydroxyphenyl)penta-2,4-dienoic acid] | −0.642 (0.032) | 89 µM | 43% | 35% | 44% | 46% | 99% | 85% | 63% | 71% | 95% | 204 to 205 °C |  |
| O=C(O)C(=Cc1ccc(OCc2ccc(Br)cc2)cc1)c1ccc(O)cc1 [Compound 2ii, 3-(4-((4-Bromobenzyl)oxy)phenyl)-2-(4-hydroxyphenyl)acrylic acid] | 0.061 (0.007) | 77 µM | 36% | 37% | 43% | 56% | 99% |  | 47% | 49% | 87% |  |  |
| CC(C)(C)c1cc(C=C(C(=O)O)c2ccc(O)cc2)c(O)c(C(C)(C)C)c1 [Compound 6ii, 3-(3,5-di-tert-Butyl-2-hydroxyphenyl)-2-(4-hydroxyphenyl)acrylic acid] | 0.622 (0.025) | 74 µM | 43% | 36% | 31% | 36% | 100% |  | 38% | 64% | 96% | 134 to 136 °C |  |
| O=C(O)C(=Cc1ccc(OCc2ccc(Br)cc2)cc1)c1ccc(Br)cc1 [Compound 2i, 3-(4-((4-Bromobenzyl)oxy)phenyl)-2-(4-bromophenyl)acrylic acid] | 0.605 (0.016) | 76 µM | 35% | 34% | 37% | 40% | 95% |  | 32% | 48% | 96% |  |  |
| CC(Cc1ccc(O)c(O)c1)C(C)Cc1ccc(O)c(O)c1 (stereo not shown) [NDGA, nordihydroguaretic acid, reference compound] |  |  | 81% | 83% | 87% | 93% |  |  |  |  |  |  |  |
| CN(C)c1ccc(C=CC=C(C(=O)O)c2ccc(Br)cc2)cc1 [Compound 3i, 2-(4-Bromophenyl)-5-(4-(dimethylamino)phenyl)penta-2,4-dienoic acid] | 0.582 (0.037) | 7.4 µM | 34% | 37% | 48% | 51% | 100% |  | 83.4% and 83% | 43% | 88% | 120 to 121 °C |  |
| CC(C)(C)c1cc(C=C(C(=O)O)c2ccc(Br)cc2)c(O)c(C(C)(C)C)c1 [Compound 6i, 2-(4-Bromophenyl)-3-(3,5-di-tert-butyl-2-hydroxyphenyl)acrylic acid] | 0.480 (0.035) | 60 µM | 38% | 36% | 44% | 39% | 100% |  | 53% | 56% | 100% | 168 to 170 °C |  |
| CC(=Cc1ccccc1)C=C(C(=O)O)c1ccc(Br)cc1 [Compound 5i, 2-(4-Bromophenyl)-4-methyl-5-phenylpenta-2,4-dienoic acid] | 0.683 (0.015) | 77.5 µM | 33% | 33% | 36% | 38% | 82% |  | 30% | 10% | 98% | 128 to 129 °C | 9.6% |
| O=C(O)/C=C/c1ccc(O)c(O)c1 [CA, Caffeic acid, reference compound] |  |  |  |  |  |  |  | 23% |  |  |  |  |  |
| Cc1c(C)c2c(c(C)c1O)CCC(C)(C(=O)O)O2 (stereo not shown) [Trolox, reference compound] |  |  |  |  |  |  | 73% |  | 88% |  | 93% |  |  |
